According to patent US7232837B2, “Stereoisomers with high affinity for adrenergic receptors” (McNeil-PPC, Inc., priority 1999, dated 2007):
Where a name gives a salt, the structure may show the parent alone.

Columns and labels:
Rat = experiment: Dosage which raised mean arterial pressure 10%, rat; type: in vivo
Dog = experiment: Dosage which raised mean arterial pressure 10%, dog; type: in vivo
[1] = system: New Zealand white rabbits; experiment: Intraocular pressure (IOP) after topical application to the rabbit eye; type: in vivo; details: mean ± S.E.
Method: These diastereomers were administered topically as either 1% or 2% solutions in buffered saline. Pupillary diameter and IOP were measured in all animals over a six hour time period during the day to minimize diurnal variations in IOP and pupil diameter.
The experiments were performed on adult male New Zealand white rabbits weighing 3.0–6.0 kg. All rabbits were caged individually and maintained on a 12 hr/12 hr light/dark schedule with free access to food and water. All animal procedures were in conformity with the ARVO Resolution on the Use and Care of Animals in Research. All treated rabbits had served as controls by having received a saline treatment on a different day.
Only one eye received drug treatment. The contralateral eye served as a control. Saline (or PBS) and drug treated rabbits were treated and observed simultaneously. A single dose was given at time zero and IOP and pupil diameter measured at −1.0, −0.5, 0.5, 1, 3 and 5 hrs post-treatment.
IOP measurements were recorded with an Alcon Applanation Pneumotonograph (Surgical Products Division, Alcon Laboratories, Inc., Ft. Worth, Tex.) in rabbits placed in Lucite restraining cages. Initial topical application of a two drop 0.5% proparacaine HCl (Ophthetic®, Allergan Pharmaceuticals, Inc.) was performed on each rabbit.
Mean and Standard Error values were used to construct time-response and dose-response curves for the treated and contralateral eye of research rabbits. The data were analyzed statistically by an analysis of variance and a Bonferoni's test for significance. P<0.05 was the accepted level of significance.

Swiss-Webster mice [2] = experiment: Locomotor stimulant and depressant effects in mice; details: i.p.; for Depression Efficacy: ratio of the maximal depressant effect to the maximum possible effect (zero locomotor activity) / Stimulation Efficacy: ratio of the maximal stimulant effect of the test compound to the maximal effect of (+)-amphetamine: locomotor activity
Method: Male Swiss-Webster mice (HSD ND4, Harlan Sprague Dawley, Houston, Tex.) aged 2–3 months were used in these studies. Each dose group consisted of 8 mice. The mice were housed 2 to 4 per cage in 30.4×22.9×15.2 cm clear polycarbonate cages with food and water available ad libitum for at least one week prior to locomotor activity testing. The colony was maintained at 23±1° C., on a normal light-dark cycle beginning at 0700 hr. All testing took place during the light portion of the light-dark cycle.
Horizontal (forward movement) locomotor activity was measured using a standardized, optical activity monitoring system [Model KXYZCM (16), Omnitech Electronics, Columbus, Ohio]. Activity was monitored in forty 40.5×40.5×30.5 cm clear acrylic chambers that where housed in sets of two within larger sound-attenuating chambers. A panel of 16 infrared beams and corresponding photodetectors were spaced 2 cm apart along the sides and 2.4 cm above the floor of each activity chamber. A 7.5-W incandescent light above each chamber provided dim illumination via a rheostat set to 20% of full scale. Fans provided an 80-dB ambient noise level within the chamber.
Triprolidine HCl was obtained from Research Biochemicals International, (Natick, Mass.).
Locomotor stimulant effects. […] (+)-Amphetamine was used as a positive control. The total horizontal distance traversed (cm) was recorded at 10 minute intervals for a 2-hour session. Separate groups of 8 mice were assigned to each dose or saline group, and dose-effect testing continued for each compound until maximal stimulant or depressant effects could be estimated. A separate control group was tested along with each compound.
Using TableCurve 2D v2.03 (Jandel Scientific), the mean average total distance traversed (cm/10 min) for that period was fit to a 3-parameter logistic peak function of log10 dose (with the constant set to the mean of the saline group), and the maximum effect estimated from the resulting curve. The […] (dose producing ½ maximal stimulant activity) was estimated from a linear regression against log10 dose of the ascending portion of the dose-effect curve. The stimulant efficacy was the peak effect of the compound (cm/10 min) as estimated from the logistic peak function, minus the mean control distance traveled (cm/10 min), and was expressed for each stimulant compound as a ratio to the stimulant efficacy determined for (+)-amphetamine.
The mean average total distance traversed (cm/10 min) for that period were fit to a linear function of log10 dose of the descending portion of the dose-effect curve. […] Efficacy was the ratio of maximal depressant effect to maximum possible depression for each compound (mean average total distance of the control group minus the lowest mean total distance, expressed as a ratio to the control group total distance).
(§1) Statistical analysis. Time course data for each compound were considered in 2-way analyses of variance with dose as a between-group and time as a within-group factor. The dose-effect data were considered in 1-way analyses of variance, and planned individual comparisons were conduced between each dose and the saline control group. Interaction studies were considered in 2-way analyses of variance, with Pretreatment and Test dose as the factors.

Swiss-Webster mice [3] = experiment: H1 receptor antagonist (triprolidine) interaction study, locomotor activity in mice; details: for effect of triprolidine pretreatment on stimulant or depressant effects: mice pretreated with triprolidine 20 min before the test compound
Method: H1 receptor antagonist interaction studies. […] The mice were immediately placed in the activity testing chamber for a 2-h session. Doses of the test compound were selected from the ascending or descending time of the dose-effect curve determined from the compound-alone studies. Eight mice were tested for each triprolidine/test compound combination.
as §1

β2 adrenergic receptors = target: T1, β2 adrenergic receptors (Canis lupus familiaris, UniProt P54833); experiment: Beta-2 binding, 125iodocyanopindolol (ICYP), canine lung membranes; parameters: species or system canine (mongrel dogs)
T1 construct: Canine lung membranes (10 μg protein/100 ul) were incubated with ^125ICYP; from tissue; host or cells: mongrel dog lung membranes
T1 sequence (P54833 whole entry): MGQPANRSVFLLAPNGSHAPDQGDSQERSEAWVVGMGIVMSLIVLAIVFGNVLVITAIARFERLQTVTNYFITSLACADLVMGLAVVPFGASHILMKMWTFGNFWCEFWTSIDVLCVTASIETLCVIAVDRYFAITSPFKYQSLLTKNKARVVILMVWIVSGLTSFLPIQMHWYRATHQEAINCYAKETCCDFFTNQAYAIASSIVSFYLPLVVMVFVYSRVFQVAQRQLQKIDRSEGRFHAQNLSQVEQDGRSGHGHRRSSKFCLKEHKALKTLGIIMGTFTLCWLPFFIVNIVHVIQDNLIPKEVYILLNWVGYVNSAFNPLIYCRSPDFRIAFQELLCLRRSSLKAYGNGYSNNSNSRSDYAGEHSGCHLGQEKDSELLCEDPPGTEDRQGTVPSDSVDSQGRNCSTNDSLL
Method: PULMONARY ALPHA-1 AND BETA-2 RECEPTORS: The lungs of mongrel dogs were separated from cartilaginous airways and major blood vessels, weighed, chopped and placed into 10 volumes of ice-cold buffered sucrose (50 mM Tris-HCl pH 7.4, 1 mM EGTA, 0.32M Sucrose). The tissue was then homogenized in a Polytron tissue homogenizer. The homogenate was filtered through two layers of cheesecloth, and the filtrate was dounced three times using a Con-Turque Potter homogenizer. […] The supernatant was recentrifuged at 30,000×g for 30 min at 4° C. and the resulting pellet was washed and resuspended in 10 volumes of Tris buffer (50 mM Tris HCl, pH 7.4, 1 mM EGTA) and incubated at 37° C. for 30 min in a shaking water bath. The suspension was centrifuged at 4° C. at 30,000×g for 30 min and the resulting pellet washed in 10 volumes of Tris buffer. […] Protein concentration was then determined by the Lowry method and the final suspension was adjusted to 10 mg of protein/ml, aliquoted and stored at […].
Particulates were also prepared for β2 receptors using the identical procedure except the final protein concentration was adjusted to 0.1 mg/ml.
(§2) ALPHA-2 BINDING ^125IODOCLONIDINE. […] Nonspecific binding was determined in separate incubations in the presence of 10 μM phentolamine. The final concentration of p-iodoclonidine was 44–45 pM in competition studies and between 50 pM and 10 nM in saturation experiments. Bound and free p-^125iodoclonidine were separated and the bound quantified as described above for the ICYP assays. […] BETA-2 BINDING, ^125IODOCYANOPINDOLOL (^125ICYP). […] Nonspecific binding was determined in separate incubations in the presence of 2 μM d,l-propranolol. Each experimental point was determined in triplicate. […] Incubations were terminated as described above for the α1 assays. Filters were placed into polyethylene tubes and the bound ligand was determined by gamma spectrometry (Sano et al., 1993).
(§3) All data were analyzed with the aid of microcomputer nonlinear curve fitting programs (PRISM 2.0, Graphpad Software, San Diego Calif.).
(§4) The receptors resident in each of the three membrane preparations were evaluated by standard saturation analysis following the addition of increasing concentrations of the appropriate radioligand. […] The radio ligand added for subsequent α2-displacement assays was adjusted to evaluate only the high affinity receptor. Contributions from p-iodoclonidine binding to imidazoline receptors in the α2-displacement assay were evaluated with epinephrine.
(§5) The variable, I, is the concentration of tracer added and the variable, Kd, is the equilibrium dissociation constant empirically determined for this receptor population.

α2 adrenergic receptors = experiment: Alpha-2 binding, 125iodoclonidine, canine brain (frontal cortex) membranes; parameters: species or system canine (mongrel dogs); details: α2-displacement assay, check for imidazoline receptors
Method: BRAIN ALPHA-2 RECEPTORS: Membranes of mongrel dogs were harvested from the canine frontal cortex and prepared as described for lung except that the final membrane protein concentration was adjusted to 0.5 mg/ml.
as §2, §3, §4, §5

[4] = — denotes absence of significant effect

CNC[C@H](O)c1cccc(O)c1 [(−)-Phenylephrine, (−)-phenylephrine]
Dosage of Enantiomer which raised mean arterial pressure 10%, Rat (Rat): 3 to 5 µg
Dosage of Enantiomer which raised mean arterial pressure 10%, Dog (Dog): 10 µg/kg
IOP ([1]; 1% topical, drug treated eye (T), 0.5 hr): 24 ± 0.6 mmHg
IOP ([1]; 1% topical, drug treated eye (T), 1 hr): 24 ± 1.0 mmHg
IOP ([1]; 1% topical, drug treated eye (T), 3 hr): 23 ± 1.5 mmHg
IOP ([1]; 1% topical, drug treated eye (T), 5 hr): 21 ± 1.9 mmHg
IOP ([1]; 1% topical, drug treated eye (T), −0.5 hr (pre-treatment)): 16 ± 1.5 mmHg
IOP ([1]; 1% topical, drug treated eye (T), −1 hr (pre-treatment)): 20 ± 1.6 mmHg
IOP ([1]; 1% topical, untreated contralateral eye (U), 0.5 hr): 18 ± 1.6 mmHg
IOP ([1]; 1% topical, untreated contralateral eye (U), 1 hr): 19 ± 1.3 mmHg
IOP ([1]; 1% topical, untreated contralateral eye (U), 3 hr): 20 ± 1.9 mmHg
IOP ([1]; 1% topical, untreated contralateral eye (U), 5 hr): 19 ± 1.7 mmHg
IOP ([1]; 1% topical, untreated contralateral eye (U), −0.5 hr (pre-treatment)): 15 ± 2.1 mmHg
IOP ([1]; 1% topical, untreated contralateral eye (U), −1 hr (pre-treatment)): 16 ± 1.0 mmHg
IOP ([1]; 2% topical, drug treated eye (T), 0.5 hr): 12 ± 0.8 mmHg
IOP ([1]; 2% topical, drug treated eye (T), 1 hr): 14 ± 2.0 mmHg
IOP ([1]; 2% topical, drug treated eye (T), 3 hr): 16 ± 0.8 mmHg
IOP ([1]; 2% topical, drug treated eye (T), 5 hr): 14 ± 1.3 mmHg
IOP ([1]; 2% topical, drug treated eye (T), −0.5 hr (pre-treatment)): 15 ± 1.5 mmHg
IOP ([1]; 2% topical, drug treated eye (T), −1 hr (pre-treatment)): 18 ± 1.6 mmHg
IOP ([1]; 2% topical, untreated contralateral eye (U), 0.5 hr): 20 ± 2.0 mmHg
IOP ([1]; 2% topical, untreated contralateral eye (U), 1 hr): 20 ± 2.4 mmHg
IOP ([1]; 2% topical, untreated contralateral eye (U), 3 hr): 14 ± 1.7 mmHg
IOP ([1]; 2% topical, untreated contralateral eye (U), 5 hr): 14 ± 2.0 mmHg
IOP ([1]; 2% topical, untreated contralateral eye (U), −0.5 hr (pre-treatment)): 17 ± 1.9 mmHg
IOP ([1]; 2% topical, untreated contralateral eye (U), −1 hr (pre-treatment)): 17 ± 1.9 mmHg
Depression Time: 30-min period following injection in which the maximal depression occurred (Swiss-Webster mice [2]): 0 to 30 min
Stimulation Time: 30-min period following injection in which the maximal stimulant effect occurred (Swiss-Webster mice [2]): 60 to 90 min
locomotor depressant effects, time course (result in words) (Swiss-Webster mice [2]): dose-dependent locomotor depression within 10 to 20 minutes following injection
Depression Potency: dose resulting in ½ the maximal depressant effect (ID50) (Swiss-Webster mice [2]; [4]): 2.3 mg/kg
effect of triprolidine pretreatment on stimulant or depressant effects (Swiss-Webster mice [3]): failed to show significant modification of stimulant or depressant effects

Cc1ccc(/C(=C\CN2CCCC2)c2ccccn2)cc1 [triprolidine, Triprolidine HCl]
effect on horizontal distance, triprolidine alone (Swiss-Webster mice [3]; 0.25 to 25 mg/kg, 2-hour test period): failed to affect horizontal distance
effect on locomotion, triprolidine alone (Swiss-Webster mice [3]; 50 and 100 mg/kg): Dose-dependent depression of locomotion

CC(C)(C)NCC(O)COc1cccc2[nH]c(C#N)c(I)c12 (stereo not shown) [ICYP, iodocyanopindolol]
Kd (β2 adrenergic receptors; Saturation Analysis, Run 1): 9.6 pM
Kd (β2 adrenergic receptors; Saturation Analysis, Run 2): 9.3 pM
Kd (β2 adrenergic receptors; Saturation Analysis, Summary): 9.5 pM
Kd (β2 adrenergic receptors; Scatchard Analysis, Run 1): 9.9 pM
Kd (β2 adrenergic receptors; Scatchard Analysis, Run 2): 7.8 pM
Kd (β2 adrenergic receptors; Scatchard Analysis, Summary): 8.9 pM

CNC[C@H](O)c1ccc(O)c(O)c1 [Epinephrine]
displacement of bound p-iodoclonidine (α2 adrenergic receptors): easily displaced all bound p-iodoclonidine

CNC(C)(C)Cc1ccccc1 [mephentermine]
Depression Time: 30-min period following injection in which the maximal depression occurred (Swiss-Webster mice [2]): 0 to 30 min
Stimulation Time: 30-min period following injection in which the maximal stimulant effect occurred (Swiss-Webster mice [2]): 20 to 50 min
locomotor stimulant effects, time course (result in words) (Swiss-Webster mice [2]): increased locomotion following from 5 to 25 mg/kg, with effects occurring within 20 minutes and lasting for up to 80 minutes
time of peak stimulant effects following injection (Swiss-Webster mice [2]): 20 to 50 min
Depression Efficacy: ratio of the maximal depressant effect to the maximum possible effect (zero locomotor activity) (Swiss-Webster mice [2]): 0
Stimulation Efficacy: ratio of the maximal stimulant effect of the test compound to the maximal effect of (+)-amphetamine (Swiss-Webster mice [2]): 1.25
Stimulation Potency: dose resulting in ½ the maximal stimulant effect (ID50) (Swiss-Webster mice [2]; [4]): 5.6 mg/kg
effect of triprolidine pretreatment on stimulant or depressant effects (Swiss-Webster mice [3]): failed to show significant modification of stimulant or depressant effects

C[C@H](N)[C@H](O)c1cccc(O)c1 (relative stereo) [R-(R*,S*) metaraminol]
Depression Time: 30-min period following injection in which the maximal depression occurred (Swiss-Webster mice [2]): 30 to 60 min
Stimulation Time: 30-min period following injection in which the maximal stimulant effect occurred (Swiss-Webster mice [2]): 90 to 120 min
locomotor depressant effects, time course (result in words) (Swiss-Webster mice [2]): dose-dependent locomotor depression within 10 to 20 minutes following injection
Depression Efficacy: ratio of the maximal depressant effect to the maximum possible effect (zero locomotor activity) (Swiss-Webster mice [2]): 0.87
Stimulation Efficacy: ratio of the maximal stimulant effect of the test compound to the maximal effect of (+)-amphetamine (Swiss-Webster mice [2]): 0
Depression Potency: dose resulting in ½ the maximal depressant effect (ID50) (Swiss-Webster mice [2]; [4]): 4.3 mg/kg
effect of triprolidine pretreatment on stimulant or depressant effects (Swiss-Webster mice [3]): failed to show significant modification of stimulant or depressant effects
